For this assay, the target named is T1, human mGluR2 (Homo sapiens, UniProt Q14416).
T1 construct: If the GTPgammaS assay gave them: nothing
Nature of the assay: mGluR2 allosteric activator assays described herein (FLIPR calcium mobilization in HEK 293 mGluR2/CaR cells; [35S]-GTPγS binding with CHO membranes). It is filed as cell-based. Conditions: potentiator / positive allosteric modulator activity at mGluR2; the patent does not say which of the two described assays (FLIPR or GTPγS). The source says:
The pharmacological properties of the compounds of the invention can be analyzed using standard assays for functional activity. Examples of glutamate receptor assays are well known in the art as described in, for example, Aramori et al., 1992, Neuron, 8:757; Tanabe et al., 1992, Neuron, 8:169; Miller et al., 1995, J. Neuroscience, 15:6103; Balazs, et al., 1997, J. Neurochemistry, 1997, 69:151. The methodology described in these publications is incorporated herein by reference. Conveniently, the compounds of the invention can be studied by means of an assay that measures the mobilization of intracellular calcium, [Ca^2+]i in cells expressing mGluR2.
Fluorometric Imaging Plate Reader (FLIPR) analysis was used to detect allosteric activators of mGluR2 via calcium mobilization. […]
FLIPR experiments were done using a laser setting of 0.8 W and a 0.4 second CCD camera shutter speed. […] An addition of test compound (0.01 μM to 30 μM in duplicate) was made after 10 seconds of baseline fluorescent readings were recorded on FLIPR. Fluorescent signals were then recorded for an additional 75 seconds at which point a second addition of DCG-IV (0.2 μM) was made and fluorescent signals were recorded for an additional 65 seconds. Fluorescent signals were measured as the peak height of the response within the sample period. […]
(In general: Calcium flux is commonly read through the fluorescence of an indicator in the cells.)

SMILES strings stand for the structures.

In general, EC50 refers to the concentration at which the effect is half-maximal.

T1 sequence (Q14416 19-819 limits assumed): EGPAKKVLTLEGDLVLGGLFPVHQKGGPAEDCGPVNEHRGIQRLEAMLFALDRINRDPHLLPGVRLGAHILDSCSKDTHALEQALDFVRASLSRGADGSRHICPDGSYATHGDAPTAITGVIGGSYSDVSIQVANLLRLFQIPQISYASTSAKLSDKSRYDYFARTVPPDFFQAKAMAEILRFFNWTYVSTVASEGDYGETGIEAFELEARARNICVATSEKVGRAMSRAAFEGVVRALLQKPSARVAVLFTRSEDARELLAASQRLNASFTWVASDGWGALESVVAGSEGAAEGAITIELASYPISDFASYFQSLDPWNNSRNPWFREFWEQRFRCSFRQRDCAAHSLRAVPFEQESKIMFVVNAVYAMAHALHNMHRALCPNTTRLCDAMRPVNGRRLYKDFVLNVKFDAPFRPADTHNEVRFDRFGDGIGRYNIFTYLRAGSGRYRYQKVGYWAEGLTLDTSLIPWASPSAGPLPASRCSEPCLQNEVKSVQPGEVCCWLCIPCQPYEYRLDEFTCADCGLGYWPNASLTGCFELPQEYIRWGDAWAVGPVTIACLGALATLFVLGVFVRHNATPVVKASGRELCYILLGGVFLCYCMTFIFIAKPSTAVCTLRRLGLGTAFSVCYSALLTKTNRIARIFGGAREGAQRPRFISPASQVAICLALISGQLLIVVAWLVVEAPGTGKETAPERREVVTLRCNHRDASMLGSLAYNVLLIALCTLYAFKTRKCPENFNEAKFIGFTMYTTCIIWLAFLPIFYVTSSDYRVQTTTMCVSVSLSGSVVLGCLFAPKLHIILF

`O=C1CCn2c(CN3CCC(c4ccc(F)cc4)CC3)nc3cc(F)cc1c32` [Example 28.1, 8-Fluoro-2-[4-(4-fluoro-phenyl)-piperidin-1-ylmethyl]-4,5,9a,9b-tetrahydroimidazo[4,5,1-ij]quinolin-6-one]: the half-maximal effective concentration (EC50) amounted to 1110 nM.

These data come from patent US20080318999A1, “Tricyclic Benzimidazoles and Their Use as Metabotropic Glutamate Receptor Modulators” (priority 2005, published 2008).
